# Data as given in patent US20220331274A1, “METHODS OF TREATING CANCER” (Inspirna, Inc., priority 2019, published 2022).
# Key:
# [1] = cited from earlier work
# [2] = cited from earlier work; remark: listed apart in the source
# [3] = test system: mouse melanoma; assay: syngeneic mouse melanoma model; format: in vivo
# [4] = test system: BRAF wild-type human melanoma xenograft; assay: BRAF wild-type human melanoma xenograft model; format: in vivo; conditions: 100 mg/kg in combination with dacarbazine
# [5] = cited from earlier work; remark: listed apart in the source
# [6] = test system: Xenograft A549; assay: Example 2: Xenograft A549 mice, tumor volume; format: in vivo; conditions: Group 02: 2 mg/kg cisplatin, corn oil
# Experimental: Protocol: Five groups of Xenograft A549 mice were treated and tumor volume tracked for twenty-two days. Group 01 was administered 0.9% Saline, 0 mg/kg cisplatin, Corn Oil, and 0 mg/kg 2-[3-[(3R)-3-[[2-chloro-3-(trifluoromethyl)phenyl]methyl-(2,2-diphenylethyl)amino]butoxy]phenyl]acetic acid; Group 02 was administered 2 mg/kg Cisplatin, Corn Oil, and 0 mg/kg 2-[3-[(3R)-3-[[2-chloro-3-(trifluoromethyl)phenyl]methyl-(2,2-diphenylethyl)amino]butoxy]phenyl]acetic acid; Group 03 was administered 0.9% Saline, 0 mg/kg cisplatin, and 50 mg/kg 2-[3-[(3R)-3-[[2-chloro-3-(trifluoromethyl)phenyl]methyl-(2,2-diphenylethyl)amino]butoxy]phenyl]acetic acid; Group 04 was administered 2 mg/kg cisplatin and 50 mg/kg 2-[3-[(3R)-3-[[2-chloro-3-(trifluoromethyl)phenyl]methyl-(2,2-diphenylethyl)amino]butoxy]phenyl]acetic acid twice per day daily for the entire treatment period; and Group 05 was administered 2 mg/kg cisplatin and 50 mg/kg 2-[3-[(3R)-3-[[2-chloro-3-(trifluoromethyl)phenyl]methyl-(2,2-diphenylethyl)amino]butoxy]phenyl]acetic acid twice per day for five continuous days followed by two days without for the entire treatment period.
compound,measurement,setting,value
"N.N.O=C([O-])C1(C(=O)[O-])CCC1.[Pt+2] [Carboplatin, platinum, diammine[1,1-cyclobutanedicarboxylato(2-)-O,O′]-, (SP-4-2)]","solubility in ethanol, acetone, and dimethylacetamide","[1]; ethanol, acetone, dimethylacetamide",virtually insoluble
same,solubility in water,[1]; water,approximately 14 mg/mL
same,pH of a 1% solution,[2],5-7
"Cl.O=C(O)Cc1cccc(OCCCN(Cc2cccc(C(F)(F)F)c2Cl)CC(c2ccccc2)c2ccccc2)c1 [GW3965, 3-[3-[N-(2-Chloro-3-trifluoromethylbenzyl)-(2,2-diphenylethyl)amino]propyloxy]phenylacetic acid hydrochloride, reference compound]",tumor suppressive efficacy,[3]; 100 mg/kg in combination with anti-CTLA-4,additive tumor suppressive efficacy
same,anti-tumor efficacy,"[3]; 100 mg/kg in combination with dacarbazine, syngeneic melanoma animal model",Additive anti-tumor efficacy
same,anti-tumor efficacy,[4],Additive anti-tumor efficacy
"CC(=O)O[C@@]12CO[C@@H]1C[C@H](O)[C@@]1(C)C(=O)[C@H](O)C3=C(C)[C@@H](OC(=O)[C@H](O)[C@@H](NC(=O)OC(C)(C)C)c4ccccc4)C[C@@](O)([C@@H](OC(=O)c4ccccc4)[C@H]21)C3(C)C [docetaxel, (2R,3S)—N-carboxy-3-phenylisoserine,N-tert-butyl ester, 13-ester with 5b-20-epoxy-1,2a,4,7b, 10b, 13a-hexahydroxytax-11-en-9-one 4-acetate 2-benzoate, trihydrate]",hepatotoxicity,[5]; treatment with the partner drug,hepatotoxicity has been observed
"N.N.[Cl][Pt][Cl] [cisplatin, reference compound]",mean tumor volume,"[6]; day 0, in mm³ (unit assumed)",86.05
same,mean tumor volume,[6]; day 3,116.20
same,mean tumor volume,[6]; day 6,196.48
same,mean tumor volume,"[6]; day 9, in mm³ (unit assumed)",276.41
same,mean tumor volume,"[6]; day 12, in mm³ (unit assumed)",450.58
same,mean tumor volume,"[6]; day 15, in mm³ (unit assumed)",598.84
same,mean tumor volume,[6]; day 19,1239.53
same,mean tumor volume,[6]; day 22,1521.86
ipilimumab: recombinant human IgG1 kappa monoclonal antibody that binds to CTLA-4,immune-mediated hepatitis,[5]; in vivo,immune-mediated hepatitis has been observed
nivolumab: fully human immunoglobulin (Ig) G4 monoclonal antibody directed against programmed death-1 (PD-1),hyperlipidemia in treated subjects,[5]; in vivo,has also been reported
same,immune-mediated hepatitis,[5]; in vivo,immune-mediated hepatitis has been observed
